Measured values taken from US20260250318A1, “COMPOSITIONS AND METHODS FOR CROSSING THE BLOOD BRAIN BARRIER” (VOYAGER THERAPEUTICS, INC., priority 2022, published 2026).

Assays:
[1] = tested on: brain, spinal cord, and DRG of the NHPs; assay: NGS fold enrichment of synthetic library (passage 3) in NHPs, first cross-species screen; assay type: in vivo, cynomolgus macaques (Macaca fascicularis); details: synthetic library passage 3, intravenous, relative to wild-type AAV9
Procedure: (§1) After creation of the synthetic library with the sub-selected variants, the synthetic library was screened (passage 3) in two NHPs (2-4 years of age) and two strains of mice, BALB/c (n=3, 6-8 weeks of age) and C57Bl/6 mice (n=3, 6-8 weeks of age), in a first cross-species evolution screen. The animals were injected intravenously with the synthetic library. After a period in vivo, (e.g., 28-days) RNA was extracted from nervous tissue, e.g., brain, spinal cord, and DRG of the NHPs and the brains of mice. Following RNA recovery and RT-PCR amplification, a systematic NGS enrichment analysis was performed, and the peptides comprised within the variants were identified and the capsid enrichment ratio for each variant compared to the wild-type AAV9 control was calculated (fold enrichment relative to wild-type AAV9) (Table 9). […] All animals were dosed intravenously at […] across the screen.

brain [2] = assay: NGS fold enrichment of synthetic library (passage 3) in BALB/c mice, first cross-species screen; assay type: in vivo; details: synthetic library passage 3, intravenous, relative to wild-type AAV9
Procedure: as §1

brain [3] = assay: NGS fold enrichment of synthetic library (passage 3) in C57Bl/6 mice, first cross-species screen; assay type: in vivo; details: synthetic library passage 3, intravenous, relative to wild-type AAV9
Procedure: as §1

brain [4] = assay: Maturation of TTM-001 capsid, NGS enrichment in brain of CD-1 Outbred mice; assay type: in vivo; details: NGS fold-enrichment of TTM-001 matured AAV capsid variants in the brain of CD-1 Outbred mice; intravenous 1.0×10^12 VG/dose; 14 days in life; RNA; relative to non-matured TTM-001 control
Summary of the method: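 Brain enrichment read by NGS after RNA extraction and RT-PCR, expressed as fold ratio over the matching parental capsid (TTM-001 or TTM-002). Libraries, mutated around loop IV positions 449/450–466, were injected intravenously (tail vein, 1.0×10^12 VG/dose) into three female CD-1 mice; brains harvested at 14 days.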

[5] = RNA from spinal cord of NHPs, NGS
[6] = RNA from brain of BALB/c mice, NGS
[7] = RNA from brain of C57Bl/6 mice, NGS

GAFHLAASGQNQQT
Fold enrichment over AAV9 in the brain of NHPs ([1]; RNA from brain of NHPs, NGS): 1.369 fold
Fold enrichment over AAV9 in the spinal cord of NHPs [1, 5]: 18.165 fold
Fold enrichment over AAV9 in the brain of Mice (BALB/c) (brain [2]; [6]): 0.775 fold
Fold enrichment over AAV9 in the brain of Mice (C57Bl/6) (brain [3]; [7]): 0.994 fold

GAGLIMHSGQNQQT
Fold enrichment over AAV9 in the brain of NHPs ([1]; RNA NGS, brain of NHPs): 1.425 fold
Fold enrichment over AAV9 in the spinal cord of NHPs ([1]; RNA NGS, spinal cord of NHPs): 1.408 fold
Fold enrichment over AAV9 in the brain of Mice (BALB/c) (brain [2]; RNA NGS, brain of BALB/c mice): 0.511 fold
Fold enrichment over AAV9 in the brain of Mice (C57Bl/6) (brain [3]; RNA NGS, brain of C57Bl/6 mice): 0.565 fold

GAGSIIPSGQNQQT
Fold enrichment over AAV9 in the brain of NHPs ([1]; RNA NGS, brain of NHPs): 2.129 fold
Fold enrichment over AAV9 in the spinal cord of NHPs ([1]; RNA NGS, spinal cord of NHPs): 7.164 fold
Fold enrichment over AAV9 in the brain of Mice (BALB/c) (brain [2]; RNA NGS, brain of BALB/c mice): 0.249 fold
Fold enrichment over AAV9 in the brain of Mice (C57Bl/6) (brain [3]; RNA NGS, brain of C57Bl/6 mice): 0.595 fold

GAGVHMVSGQNQQT
Fold enrichment over AAV9 in the brain of NHPs ([1]; RNA NGS, brain of NHPs): 1.987 fold
Fold enrichment over AAV9 in the spinal cord of NHPs ([1]; RNA NGS, spinal cord of NHPs): 6.488 fold
Fold enrichment over AAV9 in the brain of Mice (BALB/c) (brain [2]; RNA NGS, brain of BALB/c mice): 0.791 fold
Fold enrichment over AAV9 in the brain of Mice (C57Bl/6) (brain [3]; RNA NGS, brain of C57Bl/6 mice): 1.055 fold

GALTVMQSGQNQQT
Fold enrichment over AAV9 in the brain of NHPs ([1]; RNA NGS, brain of NHPs): 2.381 fold
Fold enrichment over AAV9 in the spinal cord of NHPs ([1]; RNA NGS, spinal cord of NHPs): 0.430 fold
Fold enrichment over AAV9 in the brain of Mice (BALB/c) (brain [2]; RNA NGS, brain of BALB/c mice): 0.199 fold
Fold enrichment over AAV9 in the brain of Mice (C57Bl/6) (brain [3]; RNA NGS, brain of C57Bl/6 mice): 0.246 fold

GALVSPISGQNQQT
Fold enrichment over AAV9 in the brain of NHPs ([1]; RNA NGS, brain of NHPs): 1.912 fold
Fold enrichment over AAV9 in the spinal cord of NHPs ([1]; RNA NGS, spinal cord of NHPs): 1.051 fold
Fold enrichment over AAV9 in the brain of Mice (BALB/c) (brain [2]; RNA NGS, brain of BALB/c mice): 0.347 fold
Fold enrichment over AAV9 in the brain of Mice (C57Bl/6) (brain [3]; RNA NGS, brain of C57Bl/6 mice): 0.640 fold

GAMTVTISGQNQQT
Fold enrichment over AAV9 in the brain of NHPs ([1]; RNA NGS, brain of NHPs): 1.542 fold
Fold enrichment over AAV9 in the spinal cord of NHPs ([1]; RNA NGS, spinal cord of NHPs): 6.249 fold
Fold enrichment over AAV9 in the brain of Mice (BALB/c) (brain [2]; RNA NGS, brain of BALB/c mice): 0.257 fold
Fold enrichment over AAV9 in the brain of Mice (C57Bl/6) (brain [3]; RNA NGS, brain of C57Bl/6 mice): 0.443 fold

GAMVSHSSGQNQQT
Fold enrichment over AAV9 in the brain of NHPs ([1]; RNA NGS, brain of NHPs): 1.833 fold
Fold enrichment over AAV9 in the spinal cord of NHPs ([1]; RNA NGS, spinal cord of NHPs): 8.999 fold
Fold enrichment over AAV9 in the brain of Mice (BALB/c) (brain [2]; RNA NGS, brain of BALB/c mice): 0.868 fold
Fold enrichment over AAV9 in the brain of Mice (C57Bl/6) (brain [3]; RNA NGS, brain of C57Bl/6 mice): 0.739 fold

GANMGHVSGQNQQT
Fold enrichment over AAV9 in the brain of NHPs ([1]; RNA NGS, brain of NHPs): 2.020 fold
Fold enrichment over AAV9 in the spinal cord of NHPs ([1]; RNA NGS, spinal cord of NHPs): 0.810 fold
Fold enrichment over AAV9 in the brain of Mice (BALB/c) (brain [2]; RNA NGS, brain of BALB/c mice): 1.138 fold
Fold enrichment over AAV9 in the brain of Mice (C57Bl/6) (brain [3]; RNA NGS, brain of C57Bl/6 mice): 1.302 fold

GARIQNASGQKQQT
Fold enrichment over AAV9 in the brain of NHPs ([1]; RNA NGS, brain of NHPs): 2.300 fold
Fold enrichment over AAV9 in the spinal cord of NHPs ([1]; RNA NGS, spinal cord of NHPs): 2.103 fold
Fold enrichment over AAV9 in the brain of Mice (BALB/c) (brain [2]; RNA NGS, brain of BALB/c mice): 1.039 fold
Fold enrichment over AAV9 in the brain of Mice (C57Bl/6) (brain [3]; RNA NGS, brain of C57Bl/6 mice): 1.220 fold

GASHMSISGQNQQT
Fold enrichment over AAV9 in the brain of NHPs ([1]; RNA from brain of NHPs, NGS): 1.284 fold
Fold enrichment over AAV9 in the spinal cord of NHPs [1, 5]: 0.462 fold
Fold enrichment over AAV9 in the brain of Mice (BALB/c) (brain [2]; [6]): 0.374 fold
Fold enrichment over AAV9 in the brain of Mice (C57Bl/6) (brain [3]; [7]): 0.404 fold

GASSLATSGQNQQT
Fold enrichment over AAV9 in the brain of NHPs ([1]; RNA from brain of NHPs, NGS): 1.337 fold
Fold enrichment over AAV9 in the spinal cord of NHPs [1, 5]: 0.703 fold
Fold enrichment over AAV9 in the brain of Mice (BALB/c) (brain [2]; [6]): 0.217 fold
Fold enrichment over AAV9 in the brain of Mice (C57Bl/6) (brain [3]; [7]): 0.423 fold

GATLQVHSGQNQQT
Fold enrichment over AAV9 in the brain of NHPs ([1]; RNA NGS, brain of NHPs): 2.122 fold
Fold enrichment over AAV9 in the spinal cord of NHPs ([1]; RNA NGS, spinal cord of NHPs): 2.219 fold
Fold enrichment over AAV9 in the brain of Mice (BALB/c) (brain [2]; RNA NGS, brain of BALB/c mice): 0.545 fold
Fold enrichment over AAV9 in the brain of Mice (C57Bl/6) (brain [3]; RNA NGS, brain of C57Bl/6 mice): 0.623 fold

GAVGHSYSGQNQQT
Fold enrichment over AAV9 in the brain of NHPs ([1]; RNA NGS, brain of NHPs): 1.706 fold
Fold enrichment over AAV9 in the spinal cord of NHPs ([1]; RNA NGS, spinal cord of NHPs): 0.808 fold
Fold enrichment over AAV9 in the brain of Mice (BALB/c) (brain [2]; RNA NGS, brain of BALB/c mice): 0.536 fold
Fold enrichment over AAV9 in the brain of Mice (C57Bl/6) (brain [3]; RNA NGS, brain of C57Bl/6 mice): 0.306 fold

GAYGMVSSGQNQQT
Fold enrichment over AAV9 in the brain of NHPs ([1]; RNA NGS, brain of NHPs): 1.518 fold
Fold enrichment over AAV9 in the spinal cord of NHPs ([1]; RNA NGS, spinal cord of NHPs): 3.469 fold
Fold enrichment over AAV9 in the brain of Mice (BALB/c) (brain [2]; RNA NGS, brain of BALB/c mice): 0.773 fold
Fold enrichment over AAV9 in the brain of Mice (C57Bl/6) (brain [3]; RNA NGS, brain of C57Bl/6 mice): 0.732 fold

KTINGSWSPHLVAQNQQT (peptide inserted in AAV capsid)
Fold enrichment over TTM-001 (brain [4]): 2.084 fold

KTINGSWSPHMLAQNQQT (peptide inserted in AAV capsid)
Fold enrichment over TTM-001 (brain [4]): 2.106 fold

KTINGTLSPHRKAQNQQT
Fold enrichment over TTM-001 (brain [4]): 2.307 fold

KTINGTPSPHRKAQNQQT
Fold enrichment over TTM-001 (brain [4]): 2.244 fold

KTINGTRSPHAKAQNQQT
Fold enrichment over TTM-001 (brain [4]): 2.071 fold

KTINGTRSPHTKAQNQQT
Fold enrichment over TTM-001 (brain [4]): 2.203 fold

KTINGTSSPHCKAQNQQT
Fold enrichment over TTM-001 (brain [4]): 2.017 fold

KTINGVASPHRKAQNQQT
Fold enrichment over TTM-001 (brain [4]): 2.261 fold

KTINGVLSPHRKAQNQQT
Fold enrichment over TTM-001 (brain [4]): 2.868 fold

KTINGVLSPHWKAQNQQT
Fold enrichment over TTM-001 (brain [4]): 2.199 fold

KTINGVPSPHWKAQNQQT
Fold enrichment over TTM-001 (brain [4]): 2.758 fold

KTINGVTSPHWKAQNQQT
Fold enrichment over TTM-001 (brain [4]): 2.387 fold

KTINGVVSPHRKAQNQQT
Fold enrichment over TTM-001 (brain [4]): 3.106 fold

KTINGWRSPHSKAQNQQT
Fold enrichment over TTM-001 (brain [4]): 2.160 fold

KTINGYLSPHRKAQNQQT
Fold enrichment over TTM-001 (brain [4]): 2.762 fold
